Where two headings read alike, the source gives them in different places.
Assays:
[1] = tested on: HCT15 cells; experiment: HCT15 anti-proliferation / cell killing assay (CellTiter-Glo), with or without verapamil; assay type: cell-based, human; conditions: Homo sapiens
Experimental: The cell line used in the anti-proliferation assays was HCT15, a human colon, colorectal carcinoma cell line. The HCT15 cells were grown in RPMI medium 1640+10% FBS. To run the assay, the cells (40 μL, 400 cells) were added to each well in a 384-well plate and incubated for twenty-four hours at 37° C. with 5% CO2. One hour before adding compounds, freshly dilute Verapamil to 0.2 mg/ml in ddH2O. Add 1 μL/well diluted Verapamil to Verapamil treatment wells and 1 μL/well ddH2O to the non-Verapamil treatment wells. Return plates to the incubator at 37° C. with 5% CO2. Then the cells were treated with test compounds at various concentrations using HPD300, and then normalize the DMSO to 0.5%. The control wells contained cells and the medium but lack the test compounds. The plates were incubated for 120 hours at 37° C. with 5% CO2. CTG reagent was then added to the wells (25 μL). After the plates were shaken for 10 min and then incubated for 10 min at room temperature, paste the clear bottom with white back seal and record luminescence with Envision. The inhibition % was calculated according to the following equation: inhibition %=[1−(assay-blank)/(control-blank)]×100.

[2] = tested on: SK-BR-3 cells; experiment: SK-BR-3 anti-proliferation assay for payloads (CellTiter-Glo); assay type: cell-based; conditions: Homo sapiens, free payload, 120-144 h, read-out: SKBR3
Experimental: The cell line used in the anti-proliferation assays was SK-BR-3, a human breast, adenocarcinoma (pleural effusion) cell line. The cells were grown in McCoy's 5a Medium+10% FBS. To run the assay for payloads, the cells (40 μL, 700 cells) were added to each well in a 384-well plate and incubated for 24 hours at 37° C. with 5% CO2. Then the cells were treated with test compounds at various concentrations using HPD300, and then normalize the DMSO to 0.5%. The control wells contain cells and the medium but lack the test compounds. The plates were incubated for 120 h at 37° C. with 5% CO2. To run the assay for ADCs and some key payloads, the cells (80 μL, 1000 cells) were added to each well in a 96-well plate and incubated for twenty-four hours at 37° C. with 5% CO2. Next, the ADCs or payloads were diluted with Opti-Mem with 0.1% BSA. The cells were treated with test compounds or ADCs (20 μL) at various concentrations in appropriate cell culture medium (total volume, 0.1 mL). The final concentration of DMSO was adjusted to 0.2% and the Opti-Mem with 0.1% BSA was adjusted to 5%. The control wells contained cells and the medium but lacked the test compounds. The plates were incubated for 144 h at 37° C. with 5% CO2. CTG reagent was then added to the wells (25 μL/384-well or 100 μL/96-well). After the plates were shaken for 10 min and then incubated for 10 min at room temperature, paste the clear bottom with white back seal and record luminescence with Envision. The inhibition % was calculated according to the following equation: inhibition %=[1-(assay-blank)/(control-blank)]×100.

[3] = HCT15 cells, no verapamil, 120 h (5 days), read-out: HCT-15
[4] = HCT-15, HCT15 cells pre-treated with verapamil, 120 h, read-out: HCT-15 with verapamil

Row | Compound | IC50 [1, 3] [nM] | IC50 [1, 4] [nM] | IC50 [2] [nM]
1 | CCCCCCN(C(=O)[C@@H](NC(=O)[C@H]1CCCCN1C)[C@@H](C)CC)[C@H](C[C@@H](OC(=O)NCC(O)CO)c1nc(C(=O)N[C@@H](Cc2ccc(NCCO)cc2)CC(C)(C)C(=O)O)cs1)C(C)C (some centres unmarked) [PA27] | > 100 | 33.6 | 63.9
2 | CCCCCCN(C(=O)[C@@H](NC(=O)[C@H]1CCCCO1)[C@@H](C)CC)[C@H](C[C@@H](OCC)c1nc(C(=O)N[C@@H](Cc2ccc(N)cc2)CC(C)(C)C(=O)O)cs1)C(C)C [PA28] | 154 | – | > 100
3 | CCCCCCN(C(=O)[C@@H](NC(=O)[C@H]1CCCCN1)[C@@H](C)CC)[C@H](C[C@@H](OCCCO)c1nc(C(=O)N[C@@H](Cc2ccc(NCC(=O)O)cc2)CC(C)(C)C(=O)O)cs1)C(C)C (mixture of isomers) [PA23, Rac-(R)-5-(4-((carboxymethyl)amino)phenyl)-4-(2-((1S,3S)-3-((2R,3R)—N-hexyl-3-methyl-2-((S)-piperidine-2-carboxamido)pentanamido)-1-(3-hydroxypropoxy)-4-methylpentyl)thiazole-4-carboxamido)-2,2-dimethylpentanoic acid] | > 1000 | > 1000 | 9.35
4 | CCCCCCN(C(=O)[C@@H](NC(=O)[C@H]1CCCCN1CCOCCOCCN)[C@@H](C)CC)[C@H](C[C@@H](OC(C)=O)c1nc(C(=O)N[C@@H](Cc2ccc(N)cc2)CC(C)(C)C(=O)O)cs1)C(C)C [PA12, (4S)-4-({2-[(1R,3R)-1-(acetyloxy)-3-[(2S,3S)-2-{[(2R)-1-{2-[2-(2-aminoethoxy)ethoxy]ethyl}piperidin-2-yl]formamido}-N-hexyl-3-methylpentanamido]-4-methylpentyl]-1,3-thiazol-4-yl}formamido)-5-(4-aminophenyl)-2,2-dimethylpentanoic acid] | 72.1 | 4.73 | > 100
5 | CCCCCCN(C(=O)[C@@H](NC(=O)[C@H]1CCCCN1CC(=O)O)[C@@H](C)CC)[C@H](C[C@@H](OC(C)=O)c1nc(C(=O)N[C@@H](Cc2ccc(N)cc2)CC(C)(C)C(=O)O)cs1)C(C)C [PA10, (S)-4-(2-((1R,3R)-1-acetoxy-3-((2S,3S)-2-((R)-1-(carboxymethyl)piperidine-2-carboxamido)-N-hexyl-3-methylpentanamido)-4-methylpentyl)thiazole-4-carboxamido)-5-(4-aminophenyl)-2,2-dimethylpentanoic acid] | 31.7 | 2.95 | 5.33
6 | CCCCCCN(C(=O)[C@@H](NC(=O)[C@H]1CCCCN1C)[C@@H](C)CC)[C@H](C[C@@H](OC(C)=O)c1nc(C(=O)N[C@@H](Cc2ccc(N)cc2)CC(C)(C)C(=O)NCC(=O)O)cs1)C(C)C (racemic) [PA29, Rac-((R)-4-(2-((1S,3S)-1-acetoxy-3-((2R,3R)—N-hexyl-3-methyl-2-((S)-1-methylpiperidine-2-carboxamido)pentanamido)-4-methylpentyl)thiazole-4-carboxamido)-5-(4-aminophenyl)-2,2-dimethylpentanoyl)glycine] | 97.1 | 9.7 | 1.47
7 | CCCCCCN(C(=O)[C@@H](NC(=O)[C@H]1CCCCN1CCN)[C@@H](C)CC)[C@H](C[C@@H](OCC)c1nc(C(=O)N[C@@H](Cc2ccc(O)cc2)CC(C)(C)C(=O)O)cs1)C(C)C [PA4, (S)-4-(2-((1R,3R)-3-((2S,3S)-2-((R)-1-(2-aminoethyl)piperidine-2-carboxamido)-N-hexyl-3-methylpentanamido)-1-ethoxy-4-methylpentyl)thiazole-4-carboxamido)-5-(4-hydroxyphenyl)-2,2-dimethylpentanoic acid] | 85 | 6.19 | > 1
8 | CCCCCCN(C(=O)[C@@H](NC(=O)[C@H]1CCCCN1C)[C@@H](C)CC)[C@H](C[C@@H](OC(C)=O)c1nc(C(=O)N[C@@H](Cc2ccc(NC(=O)CN)cc2)CC(C)(C)C(=O)O)cs1)C(C)C [Compound P28, reference compound] | 0.172 | 0.107 | 0.039
9 | CCCCCCN(C(=O)[C@@H](NC(=O)[C@H]1CCCCN1)[C@@H](C)CC)[C@H](C[C@@H](OC(C)=O)c1nc(C(=O)N[C@@H](Cc2ccc(NCC(=O)O)cc2)CC(C)(C)C(=O)O)cs1)C(C)C (mixture of isomers) [PA17, Rac-(R)-4-(2-((1S,3S)-1-acetoxy-3-((2R,3R)—N-hexyl-3-methyl-2-((S)-piperidine-2-carboxamido)pentanamido)-4-methylpentyl)thiazole-4-carboxamido)-5-(4-((carboxymethyl)amino)phenyl)-2,2-dimethylpentanoic acid] | 1.39 | 0.09 | 0.131
10 | CCCCCCN(C(=O)[C@@H](NC(=O)[C@H]1CCCCN1C)[C@@H](C)CC)[C@H](C[C@@H](OC(C)=O)c1nc(C(=O)N[C@@H](Cc2ccc(NCC(N)=O)cc2)CC(C)(C)C(=O)O)cs1)C(C)C (racemic) [PA18, Rac-(R)-4-(2-((1S,3S)-1-acetoxy-3-((2R,3R)—N-hexyl-3-methyl-2-((S)-1-methylpiperidine-2-carboxamido)pentanamido)-4-methylpentyl)thiazole-4-carboxamido)-acid] | 0.3 | 0.131 | 0.067
11 | CCCCCCN(C(=O)[C@@H](NC(=O)[C@H]1CCCCN1CCOCCN)[C@@H](C)CC)[C@H](C[C@@H](OC(C)=O)c1nc(C(=O)N[C@@H](Cc2ccc(N)cc2)CC(C)(C)C(=O)O)cs1)C(C)C [PA11, (4S)-4-({2-[(1R,3R)-1-(acetyloxy)-3-[(2S,3S)-2-{[(2R)-1-[2-(2-aminoethoxy)ethyl]piperidin-2-yl]formamido}-N-hexyl-3-methylpentanamido]-4-methylpentyl]-1,3-thiazol-4-yl}formamido)-5-(4-aminophenyl)-2,2-dimethylpentanoic acid] | 150 | 5.3 | 15.1
12 | CCCCCCN(C(=O)[C@@H](NC(=O)[C@H]1CCCCN1C)[C@@H](C)CC)[C@H](C[C@@H](OC(=O)NCC(O)CO)c1nc(C(=O)N[C@@H](Cc2ccc(N)cc2)CC(C)(C)C(=O)O)cs1)C(C)C (stereo partly drawn) [PA26, (4S)-5-(4-aminophenyl)-4-(2-((3S,6R,8R)-3-((S)-sec-butyl)-5-hexyl-13,14-dihydroxy-6-isopropyl-1-((R)-1-methylpiperidin-2-yl)-1,4,10-trioxo-9-oxa-2,5,11-triazatetradecan-8-yl)thiazole-4-carboxamido)-2,2-dimethylpentanoic acid] | 14.6 | 2.23 | 2.82
13 | CCCCCCN(C(=O)[C@@H](NC(=O)[C@H]1CCCCN1C)[C@@H](C)CC)[C@H](C[C@@H](NC(C)=O)c1nc(C(=O)N[C@@H](Cc2ccc(NC(=O)CN)cc2)CC(C)(C)C(=O)O)cs1)C(C)C [PA21, (S)-4-(2-((1R,3R)-1-acetamido-3-((2S,3S)—N-hexyl-3-methyl-2-((R)-1-methylpiperidine-2-carboxamido)pentanamido)-4-methylpentyl)thiazole-4-carboxamido)-acid] | 13.8 | 1.73 | 0.703
14 | CCCCCCN(C(=O)[C@@H](NC(=O)[C@@]1(C)CCCN1C(=O)CN)[C@@H](C)CC)[C@H](C[C@@H](OC(C)=O)c1nc(C(=O)N[C@@H](Cc2ccc(O)cc2)CC(C)(C)C(=O)O)cs1)C(C)C [PA2, (4S)-4-({2-[(1R,3R)-1-(acetyloxy)-3-[(2S,3S)-2-{[(2R)-1-(2-aminoacetyl)-2-methylpyrrolidin-2-yl]formamido}-N-hexyl-3-methylpentanamido]-4-methylpentyl]-1,3-thiazol-4-yl}formamido)-5-(4-hydroxyphenyl)-2,2-dimethylpentanoic acid] | > 100 | – | –
15 | CCCCCCN(C(=O)[C@@H](NC(=O)[C@@]1(C)CCCN1C(=O)CN)[C@@H](C)CC)[C@H](C[C@@H](OC(C)=O)c1nc(C(=O)N[C@@H](Cc2ccc(N)c(F)c2)CC(C)(C)C(=O)O)cs1)C(C)C [PA1, (4S)-4-({2-[(1R,3R)-1-(acetyloxy)-3-[(2S,3S)-2-{[(2R)-1-(2-aminoacetyl)-2-methylpyrrolidin-2-yl]formamido}-N-hexyl-3-methylpentanamido]-4-methylpentyl]-1,3-thiazol-4-yl}formamido)-5-(4-amino-3-fluorophenyl)-2,2-dimethylpentanoic acid] | > 100 | > 100 | –
